Experimental data from patent US6461997B1, “Triazole sulfones having herbicidal activity” (Monsanto Technology LLC, priority 1999, dated 2002).

Key:
[1] = system: CHEAL (common lambsquarters); test: Pre-emergence herbicidal activity, warm season; format: in vivo, Chenopodium album; settings: GR80 = lowest tested rate (300, 100, 30, 10 g/ha) with 80% or greater inhibition; approx. 14 days after treating; 30/21° C.
Summary of the method: (§1)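 Seeds sown in sterilised fertilised topsoil received surface-applied compound in 50:50 acetone/water, typically at 300, 100, 30 and 10 g/ha, then greenhouse-grown at 30/21° C (warm-season species) or 18/13° C (cool-season species). Percent inhibition versus untreated plants was scored at about 14 days, giving GR80; an asterisk marks activity short of 80% at the top rate.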

POROL (common purslane) = test: Pre-emergence herbicidal activity, warm season; format: in vivo, Portulaca oleracea; settings: GR80 = lowest tested rate (300, 100, 30, 10 g/ha) with 80% or greater inhibition; approx. 14 days after treating; 30/21° C.
Summary of the method: as §1

[2] = system: CIRAR (canada thistle (seedling)); test: Pre-emergence herbicidal activity, warm season; format: in vivo, Cirsium arvense; settings: GR80 = lowest tested rate (300, 100, 30, 10 g/ha) with 80% or greater inhibition; approx. 14 days after treating; 30/21° C.
Summary of the method: as §1

[3] = system: SORHA (johnsongrass (seedling)); test: Pre-emergence herbicidal activity, warm season; format: in vivo, Sorghum halepense; settings: GR80 = lowest tested rate (300, 100, 30, 10 g/ha) with 80% or greater inhibition; approx. 14 days after treating; 30/21° C.
Summary of the method: as §1

[4] = system: BRAPP (broadleaf signalgrass); test: Pre-emergence herbicidal activity, warm season; format: in vivo, Brachiaria platyphylla; settings: GR80 = lowest tested rate (300, 100, 30, 10 g/ha) with 80% or greater inhibition; approx. 14 days after treating; 30/21° C.
Summary of the method: as §1

SOLNI (black nightshade) = test: Pre-plant incorporated (PPI) herbicidal activity, warm season; format: in vivo, Solanum nigrum
Method: (§2) In another set of tests, the pre-plant incorporated (PPI) activity of compounds of this invention was evaluated on the same species as for the pre-emergence tests described above. In the PPI tests the following procedure, designed to simulate PPI application, was used.
(§3) A pre-prepared topsoil mixture (described above) was placed in a pot and compacted to a depth of 1.0 to 1.25 cm from the top of the pot. Seeds of each of several monocotyledonous and dicotyledonous annual plant species were placed on top of the soil. A sufficient quantity of soil to cover the seeds and level fill the pot was weighed into an open container. A known amount of the test compound was dissolved or suspended in an organic solvent and applied by spraying to this cover soil. The cover soil was thoroughly mixed to distribute the test compound throughout the cover soil, and was then applied as a cover layer over the seeds. Untreated soil was used as a cover layer for control pots. After treatment the plants were placed in a greenhouse where they received 0.64 cm of overhead irrigation. All subsequent watering consisted of a light overhead mist and/or subirrigation as needed for germination and growth. Tables 9 and 10 below relate to warm season plant species which were placed after pre-emergence treatment in a greenhouse with a 30/21° C. day/night temperature regime. Tables 11 and 12 below relates to cool season plant species placed after pre-emergence treatment in a greenhouse or growth chamber with an 18/13° C. day/night temperature regime. Only the compounds of Examples 1, 6, 8, 11, 13 and 15-20 were included in PPI tests.
(§4) Approximately 14 days after planting and treating, the plants were observed and herbicidal efficacy recorded as percent inhibition by comparison with untreated plants.

[5] = system: CHEAL (common lambsquarters); test: as above; format: in vivo, Chenopodium album
Method: as §2, §3, §4

[6] = system: BRAPP (broadleaf signalgrass); test: as above; format: in vivo, Brachiaria platyphylla
Method: as §2, §3, §4

SASKR (russian thistle) = test: Pre-plant incorporated (PPI) herbicidal activity, cool season; format: in vivo, Salsola kali
Method: as §2, §3, §4

[7] = system: AGSST (creeping bentgrass); test: as above; format: in vivo, Agrostis stolonifera
Method: as §2, §3, §4

wheat (TRZAW) = test: Selectivity test, PPI, cool season crop; format: in vivo, Triticum aestivum; settings: PPI application
Method: as §3, §4
Additional pre-emergence and PPI tests were conducted by the procedures described above, on warm and cool season weed species in the presence of crop species, to assess herbicidal selectivity. Crop species included in warm season tests were corn (Zea mays, ZEAMX), rice (Oryza sativa, ORYSA) and soybean (Glycine max, GLYMX). Crop species included in cool season tests were wheat (Triticum aestivum, TRZAW), barley (Hordeunm vulgare, HORVX) and oilseed rape (Brassica napus, BRSNS).
Tables 15 and 16 relate to pre-emergence and PPI tests respectively on warm season species. Table 17 relates to pre-emergence tests on cool season species.

[8] = pre-plant incorporated, GR80 = lowest tested rate with 80% or greater inhibition, approx. 14 days after treating, 30/21° C.
[9] = pre-plant incorporated, lowest tested rate with 80% or greater inhibition, about 14 days
[10] = weed, PPI application, 100 g/ha
[11] = weed, PPI application, 300 g/ha
[12] = weed, PPI application, 900 g/ha

## CCSC(F)(F)S(=O)(=O)c1ncn(C(=O)N(CC)CC)n1 [Example 8, 1-(N,N-diethylcarbamoyl)-3-[difluoro(ethylthio)methylsulfonyl]-1,2,4-triazole]
[1]
  Pre-emergence activity (GR80) CHEAL: 100 g/ha
POROL (common purslane)
  Pre-emergence activity (GR80) POROL: 300 g/ha
[2]
  Pre-emergence activity (GR80) CIRAR: 300 g/ha
[3]
  Pre-emergence activity (GR80) SORHA: 100 g/ha
[4]
  Pre-emergence activity (GR80) BRAPP: 100 g/ha
SOLNI (black nightshade); Solanum nigrum, PPI application, 30 g/ha, read-out: Percent inhibition SOLNI
  inhibition at 30 g/ha: 50%
SOLNI (black nightshade); Solanum nigrum, PPI application, 100 g/ha, read-out: Percent inhibition SOLNI
  inhibition at 100 g/ha: 100%
SOLNI (black nightshade); Solanum nigrum, PPI application, 300 g/ha, read-out: Percent inhibition SOLNI
  inhibition at 300 g/ha: 100%
SOLNI (black nightshade); Solanum nigrum, PPI application, 900 g/ha, read-out: Percent inhibition SOLNI
  inhibition at 900 g/ha: 100%
SOLNI (black nightshade); [8]
  PPI activity (GR80) SOLNI: 100 g/ha
[5]; Chenopodium album, PPI application, 30 g/ha, read-out: Percent inhibition CHEAL
  inhibition at 30 g/ha: 70%
[5]; Chenopodium album, PPI application, 100 g/ha, read-out: Percent inhibition CHEAL
  inhibition at 100 g/ha: 100%
[5]; Chenopodium album, PPI application, 300 g/ha, read-out: Percent inhibition CHEAL
  inhibition at 300 g/ha: 100%
[5]; Chenopodium album, PPI application, 900 g/ha, read-out: Percent inhibition CHEAL
  inhibition at 900 g/ha: 100%
[5]; [8]
  PPI activity (GR80) CHEAL: 30 g/ha
[6]; Urochloa platyphylla, PPI application, 30 g/ha, read-out: Percent inhibition BRAPP
  inhibition at 30 g/ha: 40%
[6]; Urochloa platyphylla, PPI application, 100 g/ha, read-out: Percent inhibition BRAPP
  inhibition at 100 g/ha: 70%
[6]; Urochloa platyphylla, PPI application, 300 g/ha, read-out: Percent inhibition BRAPP
  inhibition at 300 g/ha: 100%
[6]; Urochloa platyphylla, PPI application, 900 g/ha, read-out: Percent inhibition BRAPP
  inhibition at 900 g/ha: 100%
[6]; [9]
  PPI activity GR80, BRAPP: 30 g/ha
SASKR (russian thistle); Salsola kali, weed, PPI application, 30 g/ha, read-out: Percent inhibition SASKR
  inhibition at 30 g/ha: 0%
SASKR (russian thistle); Salsola kali, weed, PPI application, 100 g/ha, read-out: Percent inhibition SASKR
  inhibition at 100 g/ha: 50%
SASKR (russian thistle); Salsola kali, weed, PPI application, 300 g/ha, read-out: Percent inhibition SASKR
  inhibition at 300 g/ha: 90%
SASKR (russian thistle); Salsola kali, weed, PPI application, 900 g/ha, read-out: Percent inhibition SASKR
  inhibition at 900 g/ha: 100%
SASKR (russian thistle); [9]
  PPI activity GR80, SASKR: 100 g/ha
[7]; Agrostis stolonifera, weed, PPI application, 30 g/ha, read-out: Percent inhibition AGSST
  inhibition at 30 g/ha: 100%
[7]; Agrostis stolonifera, weed, PPI application, 100 g/ha, read-out: Percent inhibition AGSST
  inhibition at 100 g/ha: 100%
[7]; Agrostis stolonifera, weed, PPI application, 300 g/ha, read-out: Percent inhibition AGSST
  inhibition at 300 g/ha: 100%
[7]; Agrostis stolonifera, weed, PPI application, 900 g/ha, read-out: Percent inhibition AGSST
  inhibition at 900 g/ha: 100%
[7]; [9]
  PPI activity GR80, AGSST: 30 g/ha
Wheat (TRZAW); Triticum aestivum, 30 g/ha, read-out: Percent inhibition TRZAW
  inhibition at 30 g/ha: 0%
Wheat (TRZAW); Triticum aestivum, 100 g/ha, read-out: Percent inhibition TRZAW
  inhibition at 100 g/ha: 0%
Wheat (TRZAW); Triticum aestivum, 300 g/ha, read-out: Percent inhibition TRZAW
  inhibition at 300 g/ha: 20%
Wheat (TRZAW); Triticum aestivum, 900 g/ha, read-out: Percent inhibition TRZAW
  inhibition at 900 g/ha: 60%

## CCN(CC)C(=O)n1cnc(S(=O)(=O)C(F)(F)SC)n1 [Example 9]
[1]
  Pre-emergence activity (GR80) CHEAL: 300 g/ha
POROL (common purslane)
  Pre-emergence activity (GR80) POROL: 300 g/ha
[2]
  Pre-emergence activity (GR80) CIRAR: 100 g/ha
[3]
  Pre-emergence activity (GR80) SORHA: 100 g/ha
[4]
  Pre-emergence activity (GR80) BRAPP: 300 g/ha
SOLNI (black nightshade); PPI application, 30 g/ha
  Percent inhibition SOLNI: 95%
SOLNI (black nightshade); PPI application, 100 g/ha
  Percent inhibition SOLNI: 100%
SOLNI (black nightshade); PPI application, 300 g/ha
  Percent inhibition SOLNI: 100%
SOLNI (black nightshade); PPI application, 900 g/ha
  Percent inhibition SOLNI: 99%
[5]; PPI application, 30 g/ha
  Percent inhibition CHEAL: 95%
[5]; PPI application, 100 g/ha
  Percent inhibition CHEAL: 100%
[5]; PPI application, 300 g/ha
  Percent inhibition CHEAL: 100%
[5]; PPI application, 900 g/ha
  Percent inhibition CHEAL: 100%
[6]; PPI application, 30 g/ha
  Percent inhibition BRAPP: 70%
[6]; PPI application, 100 g/ha
  Percent inhibition BRAPP: 80%
[6]; PPI application, 300 g/ha
  Percent inhibition BRAPP: 100%
[6]; PPI application, 900 g/ha
  Percent inhibition BRAPP: 100%
SASKR (russian thistle); weed, PPI application, 30 g/ha
  Percent inhibition SASKR: 50%
SASKR (russian thistle); [10]
  Percent inhibition SASKR: 100%
SASKR (russian thistle); [11]
  Percent inhibition SASKR: 95%
SASKR (russian thistle); [12]
  Percent inhibition SASKR: 100%
[7]; weed, PPI application, 30 g/ha
  Percent inhibition AGSST: 99%
[7]; [10]
  Percent inhibition AGSST: 100%
[7]; [11]
  Percent inhibition AGSST: 100%
[7]; [12]
  Percent inhibition AGSST: 100%
Wheat (TRZAW); 30 g/ha
  Percent inhibition TRZAW: 0%
Wheat (TRZAW); 100 g/ha
  Percent inhibition TRZAW: 0%
Wheat (TRZAW); 300 g/ha
  Percent inhibition TRZAW: 10%
Wheat (TRZAW); 900 g/ha
  Percent inhibition TRZAW: 70%
